Assay results: ChEMBL document CHEMBL3885881, “DrugMatrix”

Species on record: Rattus norvegicus
Assay: DrugMatrix - Regimen: Daily Repeat
Assay type: toxicity, organism-based, Sprague-Dawley
Parameters: regimen Daily Repeat, gender Male, age 6-8 weeks
Details: in vivo, po, route oral GAVAGE, vehicle .5 % CMC; for ABSOLUTE BASOPHIL / ABSOLUTE EOSINOPHIL / ABSOLUTE LYMPHOCYTE / ABSOLUTE MONOCYTE / ABSOLUTE SEGMENTED NEUTROPHIL / BASOPHIL / EOSINOPHIL / ERYTHROCYTE COUNT / HEMATOCRIT / HEMOGLOBIN / LEUKOCYTE COUNT / LYMPHOCYTE / MEAN CORPUSCULAR HEMOGLOBIN / MEAN CORPUSCULAR HEMOGLOBIN CONCENTRATION / MEAN CORPUSCULAR VOLUME / MONOCYTE / NEUTROPHIL / NUCLEATED RED BLOOD CELLS / PLATELET COUNT: tissue Blood; for ALANINE AMINOTRANSFERASE / ALBUMIN / ALKALINE PHOSPHATASE / ASPARTATE AMINOTRANSFERASE / BLOOD UREA NITROGEN / CARBON DIOXIDE / CHLORIDE / CHOLESTEROL / CREATINE PHOSPHOKINASE / CREATININE / GLUCOSE / LACTATE DEHYDROGENASE / LIPASE / PHOSPHORUS / POTASSIUM / SODIUM / TOTAL BILIRUBIN / TOTAL PROTEIN / URIC ACID: tissue Plasma
[1] = 20 mg/kg, 72 h, dose level Low, time 3 day
[2] = 20 mg/kg, 120 h, dose level Low, time 5 day
[3] = 600 mg/kg, 72 h, dose level High, time 3 day
[4] = 600 mg/kg, 120 h, dose level High, time 5 day

For CC(C)CN(C[C@@H](O)[C@H](Cc1ccccc1)NC(=O)O[C@H]1CCOC1)S(=O)(=O)c1ccc(N)cc1, the “ABSOLUTE BASOPHIL” value [1] was 0 CELLS/uL, the “ABSOLUTE EOSINOPHIL” value [1] was 148.67 CELLS/uL and the “ABSOLUTE LYMPHOCYTE” value [1] was 12756.67 CELLS/uL. For the same compound, the “ABSOLUTE MONOCYTE” value [1] was 107.67 CELLS/uL, the “ABSOLUTE SEGMENTED NEUTROPHIL” value [1] was 887 CELLS/uL and the BASOPHIL [1] was 0%. For the same compound, the EOSINOPHIL [1] was 1%, the “ERYTHROCYTE COUNT” value [1] was 5.52 x10E6/uL and the HEMATOCRIT [1] was 35.2%. For the same compound, the HEMOGLOBIN [1] was 13.3 G/DL, the “LEUKOCYTE COUNT” value [1] was 13.9 x10E3/uL and the LYMPHOCYTE [1] was 91.67%. The “MEAN CORPUSCULAR HEMOGLOBIN” value [1] was 24.17 pg, the “MEAN CORPUSCULAR HEMOGLOBIN CONCENTRATION” value [1] was 37.8 G/DL and the “MEAN CORPUSCULAR VOLUME” value [1] was 63.87 fL. For the same compound, the MONOCYTE [1] was 0.67%, the NEUTROPHIL [1] was 6.67% and the “NUCLEATED RED BLOOD CELLS” value [1] was 0 /100WBC. The “PLATELET COUNT” value [1] was 1248.33 x10E3/uL, the “ALANINE AMINOTRANSFERASE” value [1] was 50 u/L and the ALBUMIN [1] was 4.23 G/DL. The “ALKALINE PHOSPHATASE” value [1] was 362 u/L, the “ASPARTATE AMINOTRANSFERASE” value [1] was 76.33 u/L and the “BLOOD UREA NITROGEN” value [1] was 16.33 mg/dL. The “CARBON DIOXIDE” value [1] was 26 mmol/L, the CHLORIDE [1] was 102 MEQ/L and the CHOLESTEROL [1] was 67 mg/dL. For the same compound, the “CREATINE PHOSPHOKINASE” value [1] was 172.67 u/L, the CREATININE [1] was 0.21 mg/dL and the GLUCOSE [1] was 169.67 mg/dL. For the same compound, the “LACTATE DEHYDROGENASE” value [1] was 136.67 u/L, the LIPASE [1] was 8 u/L and the PHOSPHORUS [1] was 12.83 mg/dL. The POTASSIUM [1] was 6.23 MEQ/L, the SODIUM [1] was 144.7 MEQ/L and the “TOTAL BILIRUBIN” value [1] was 0.17 mg/dL. For the same compound, the “TOTAL PROTEIN” value [1] was 6.07 G/DL, the “URIC ACID” value [1] was 1.83 mg/dL and the “ABSOLUTE BASOPHIL” value [2] was 0 CELLS/uL. For the same compound, the “ABSOLUTE EOSINOPHIL” value [2] was 74 CELLS/uL, the “ABSOLUTE LYMPHOCYTE” value [2] was 7729 CELLS/uL and the “ABSOLUTE MONOCYTE” value [2] was 39.33 CELLS/uL. For the same compound, the “ABSOLUTE SEGMENTED NEUTROPHIL” value [2] was 524.33 CELLS/uL, the BASOPHIL [2] was 0% and the EOSINOPHIL [2] was 1%. The “ERYTHROCYTE COUNT” value [2] was 5.73 x10E6/uL, the HEMATOCRIT [2] was 35.57% and the HEMOGLOBIN [2] was 13.37 G/DL. For the same compound, the “LEUKOCYTE COUNT” value [2] was 8.37 x10E3/uL, the LYMPHOCYTE [2] was 92% and the “MEAN CORPUSCULAR HEMOGLOBIN” value [2] was 23.33 pg. For the same compound, the “MEAN CORPUSCULAR HEMOGLOBIN CONCENTRATION” value [2] was 37.63 G/DL, the “MEAN CORPUSCULAR VOLUME” value [2] was 62.13 fL and the MONOCYTE [2] was 0.33%. For the same compound, the NEUTROPHIL [2] was 6.67%, the “NUCLEATED RED BLOOD CELLS” value [2] was 0 /100WBC and the “PLATELET COUNT” value [2] was 1179.33 x10E3/uL. For the same compound, the “ALANINE AMINOTRANSFERASE” value [2] was 54.33 u/L, the ALBUMIN [2] was 4.43 G/DL and the “ALKALINE PHOSPHATASE” value [2] was 421.33 u/L. For the same compound, the “ASPARTATE AMINOTRANSFERASE” value [2] was 83 u/L, the “BLOOD UREA NITROGEN” value [2] was 14.33 mg/dL and the “CARBON DIOXIDE” value [2] was 28.33 mmol/L. The CHLORIDE [2] was 101 MEQ/L, the CHOLESTEROL [2] was 68 mg/dL and the “CREATINE PHOSPHOKINASE” value [2] was 229.67 u/L. The CREATININE [2] was 0.2 mg/dL, the GLUCOSE [2] was 141 mg/dL and the “LACTATE DEHYDROGENASE” value [2] was 108 u/L. The LIPASE [2] was 8.67 u/L, the PHOSPHORUS [2] was 12.47 mg/dL and the POTASSIUM [2] was 6.58 MEQ/L. The SODIUM [2] was 146.5 MEQ/L, the “TOTAL BILIRUBIN” value [2] was 0.2 mg/dL and the “TOTAL PROTEIN” value [2] was 6.3 G/DL. The “URIC ACID” value [2] was 1.3 mg/dL, the “ABSOLUTE BASOPHIL” value [3] was 0 CELLS/uL and the “ABSOLUTE EOSINOPHIL” value [3] was 50.33 CELLS/uL. The “ABSOLUTE LYMPHOCYTE” value [3] was 11050.67 CELLS/uL, the “ABSOLUTE MONOCYTE” value [3] was 72.33 CELLS/uL and the “ABSOLUTE SEGMENTED NEUTROPHIL” value [3] was 1093.33 CELLS/uL. The BASOPHIL [3] was 0%, the EOSINOPHIL [3] was 0.33% and the “ERYTHROCYTE COUNT” value [3] was 5.53 x10E6/uL. For the same compound, the HEMATOCRIT [3] was 35.5%, the HEMOGLOBIN [3] was 13.6 G/DL and the “LEUKOCYTE COUNT” value [3] was 12.27 x10E3/uL. For the same compound, the LYMPHOCYTE [3] was 89.67%, the “MEAN CORPUSCULAR HEMOGLOBIN” value [3] was 24.57 pg and the “MEAN CORPUSCULAR HEMOGLOBIN CONCENTRATION” value [3] was 38.27 G/DL. The “MEAN CORPUSCULAR VOLUME” value [3] was 64.1 fL, the MONOCYTE [3] was 0.67% and the NEUTROPHIL [3] was 9.33%. For the same compound, the “NUCLEATED RED BLOOD CELLS” value [3] was 0 /100WBC, the “PLATELET COUNT” value [3] was 1258 x10E3/uL and the “ALANINE AMINOTRANSFERASE” value [3] was 56.67 u/L. The ALBUMIN [3] was 4.33 G/DL, the “ALKALINE PHOSPHATASE” value [3] was 381 u/L and the “ASPARTATE AMINOTRANSFERASE” value [3] was 116.67 u/L. For the same compound, the “BLOOD UREA NITROGEN” value [3] was 16 mg/dL, the “CARBON DIOXIDE” value [3] was 25 mmol/L and the CHLORIDE [3] was 107.33 MEQ/L. The CHOLESTEROL [3] was 69 mg/dL, the “CREATINE PHOSPHOKINASE” value [3] was 1567.67 u/L and the CREATININE [3] was 0.18 mg/dL. The GLUCOSE [3] was 194.33 mg/dL, the “LACTATE DEHYDROGENASE” value [3] was 164.67 u/L and the LIPASE [3] was 8.67 u/L. It also gave a PHOSPHORUS [3] of 14.17 mg/dL, a POTASSIUM [3] of 6.64 MEQ/L and an SODIUM [3] of 145.83 MEQ/L. For the same compound, the “TOTAL BILIRUBIN” value [3] was 0.23 mg/dL, the “TOTAL PROTEIN” value [3] was 5.97 G/DL and the “URIC ACID” value [3] was 2.07 mg/dL. For the same compound, the “ABSOLUTE BASOPHIL” value [4] was 0 CELLS/uL, the “ABSOLUTE EOSINOPHIL” value [4] was 292.33 CELLS/uL and the “ABSOLUTE LYMPHOCYTE” value [4] was 15254.33 CELLS/uL. The “ABSOLUTE MONOCYTE” value [4] was 69 CELLS/uL, the “ABSOLUTE SEGMENTED NEUTROPHIL” value [4] was 1517.67 CELLS/uL and the BASOPHIL [4] was 0%. For the same compound, the EOSINOPHIL [4] was 1.67%, the “ERYTHROCYTE COUNT” value [4] was 5.48 x10E6/uL and the HEMATOCRIT [4] was 34.63%. The HEMOGLOBIN [4] was 13.17 G/DL, the “LEUKOCYTE COUNT” value [4] was 17.13 x10E3/uL and the LYMPHOCYTE [4] was 88.67%. For the same compound, the “MEAN CORPUSCULAR HEMOGLOBIN” value [4] was 24.03 pg, the “MEAN CORPUSCULAR HEMOGLOBIN CONCENTRATION” value [4] was 38 G/DL and the “MEAN CORPUSCULAR VOLUME” value [4] was 63.2 fL. The MONOCYTE [4] was 0.33%, the NEUTROPHIL [4] was 9.33% and the “NUCLEATED RED BLOOD CELLS” value [4] was 0 /100WBC. The “PLATELET COUNT” value [4] was 1347.67 x10E3/uL, the “ALANINE AMINOTRANSFERASE” value [4] was 41.67 u/L and the ALBUMIN [4] was 4.2 G/DL. For the same compound, the “ALKALINE PHOSPHATASE” value [4] was 390 u/L, the “ASPARTATE AMINOTRANSFERASE” value [4] was 76.33 u/L and the “BLOOD UREA NITROGEN” value [4] was 15.67 mg/dL. For the same compound, the “CARBON DIOXIDE” value [4] was 27.33 mmol/L, the CHLORIDE [4] was 102.33 MEQ/L and the CHOLESTEROL [4] was 58.67 mg/dL. The “CREATINE PHOSPHOKINASE” value [4] was 202 u/L, the CREATININE [4] was 0.21 mg/dL and the GLUCOSE [4] was 161.33 mg/dL. For the same compound, the “LACTATE DEHYDROGENASE” value [4] was 95.67 u/L, the LIPASE [4] was 8.33 u/L and the PHOSPHORUS [4] was 12.93 mg/dL. For the same compound, the POTASSIUM [4] was 6.23 MEQ/L, the SODIUM [4] was 144.37 MEQ/L and the “TOTAL BILIRUBIN” value [4] was 0.17 mg/dL. For the same compound, the “TOTAL PROTEIN” value [4] was 6 G/DL and the “URIC ACID” value [4] was 1.77 mg/dL.
